The text below walks through data of patent US8415106B2, “Cell-based screen for agents useful for reducing neuronal demyelination or promoting neuronal remyelination” (Myelin Repair Foundation, Inc., priority 2005, dated 2013).

For assay [1], the system named is PP1-GADD34 phosphatase. Particulars: Boyce, et al. (2005) Science 307:935-939; cited from earlier work.
Assay [2] deals with myelin basic protein (MBP). Description: Hippocampal organotypic cultures (HOC), in vitro model of myelination, MBP Western blot. The format is cell-based. To be noted: 7 days. How it is done: HOCs, were prepared and maintained as described previously (Kunkler and Kraig (1997) J Cereb Blood Flow Metab. 17:26-43), and were maintained in vitro for 7 days before use. SAL at various concentrations was combined with 100 U/ml IFN-γ and added to the HOC cultures for 7 days. […] After 7 days of 100 U/ml IFN-γ exposure, the levels of MBP decreased approximately 80% in the HOCs (FIG. 29).
On the technique in general: Immunoblotting shows a protein as a band on a membrane.

Regarding `O=C(/C=C/c1ccccc1)NC(NC(=S)Nc1cccc2cccnc12)C(Cl)(Cl)Cl` (stereo not drawn) [SAL, salubrinal], the PP1-GADD34 phosphatase activity result in assay [1] is listed as “specifically inhibits the PP1-GADD34 phosphatase activity”. Moreover, in assay [2] (SAL at various concentrations combined with 100 U/ml IFN-γ), the “reduction of MBP expression elicited by IFN-γ exposure” value is recorded as “markedly attenuated”. The MBP expression entry in assay [2] (SAL treatment alone) is on record as “did not affect MBP expression”.
